Experimental findings from ChEMBL document CHEMBL1201862, “PubChem BioAssay data set” (2004) are described below.

For orientation: CC50 means the concentration that lowers cell viability or growth by half. As a reminder, the EC50 is the concentration giving half of the maximal effect. As usually defined, the IC50 is the concentration at which inhibition is half-maximal. One may read the AC50 as the midpoint of the concentration-response curve, whichever way the signal moves. As usually defined, the Ki is the dissociation constant of the complex between target and ligand, obtained from inhibition or displacement.

Active and inactive are the calls of the source.

Assay [1] is described as follows: viability of uninfected HEp-2 cells – cell-based, HTS, cytotoxicity control for RSV inhibitor project, dose response (AID 2410). The assay is classed as functional. Particulars: human respiratory syncytial virus.
Assay [2] is described as follows: Luminescence Cell-Based Dose Confirmation HTS to Identify Activators of 5'UTR Stem-Loop Driven Alpha-Synuclein mRNA Translation in H4 Neuroglioblastoma Cells. [Related pubchem assays: 1829 (Project Summary), 1814 (Primary HTS)]. The assay is classed as functional.
Assay [3] can be described thus: Luminescence Cell-Based Dose Response HTS to Identify Activators of Luciferase Translation or Activity in H4 […] Cells. [Related pubchem assays: 1829 (Project Summary), 1814 (Primary HTS)]. The assay is classed as functional.
The next assay relates to H4. Put plainly: Luminescence Cell-Based Dose Response HTS to Identify Activators of 5'UTR Stem-Loop Driven Prion Protein mRNA Translation in H4 Neuroglioblastoma Cells. [Related pubchem assays: 1829 (Project Summary), 1814 (Primary HTS)]. The assay is classed as functional. Particulars: Homo sapiens.
For assay [4], the system named is Vero. As to the kind of experiment: cells. The assay is classed as functional, cell-based. Particulars: Chlorocebus sabaeus.
Assay [5] concerns Vero. As to the kind of experiment: cells. The assay is classed as functional. Particulars: Chlorocebus sabaeus.
Assay [6] can be described thus: cells.
Assay [7] has as its target DNA dC->dU-editing enzyme APOBEC-3A (Homo sapiens, UniProt P31941). As to the kind of experiment: Dose Response confirmation of small molecule APOBEC3A DNA Deaminase Inhibitors via a fluorescence-based single-stranded DNA deaminase assay. [Related pubchem assays (depositor defined):AID493011, AID493024]. In kind it is functional.
The target of assay [8] is DNA dC->dU-editing enzyme APOBEC-3G (Homo sapiens, UniProt Q9HC16). The assay is classed as functional.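 Note: Dose-response counterscreen measuring inhibition of APOBEC3G DNA deaminase activity, run while confirming APOBEC3A inhibitors.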
Assay [9] is described as follows: viability of PTEN-deleted HCT116 cells – cell-based, HCT116 PTEN knockout, dose response (AID 1047).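 Note: HCT116 colon tumor cells with PTEN knocked out; cells exposed to compound for 60 hours before readout; potency for loss of cell viability measured by luminescence.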 The assay is classed as functional.
Assay [10] is described as follows: viability of HCT116 lacking mutant beta-catenin – cell-based, human colon tumor, dose response (AID 1045).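 Note: HCT116 colon tumor cells with beta catenin knocked out; cells exposed to compound for 60 hours.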 The assay is classed as functional.
Assay [11] concerns the target Voltage-dependent T-type calcium channel subunit alpha-1H (Homo sapiens, UniProt O95180). The assay is classed as functional.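 Note: channel activity triggered by adding a high calcium stimulation buffer.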
For the next assay, the target named is SUMO-activating enzyme (Homo sapiens, UniProt Q9UBT2). As to the kind of experiment: blockers of UBC9-mediated SUMO conjugation – biochemical, AlphaScreen, SUMOylation inhibitor project, confirmation (AID 2018). In kind it is functional. Background: Bead proximity is the source of the signal in Alpha formats.
The target of assay [12] is G-protein coupled receptor 55 (Homo sapiens, UniProt Q9Y2T6). Put plainly: inhibition of LPI-stimulated GPR55 beta-arrestin translocation – imaging, U2OS, beta-arrestin-GFP, LPI agonist, primary screen (AID 2013).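 Note: antagonist potency measured as reduced agonist-driven arrestin aggregation.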 In kind it is functional.
A further assay concerns INS1. Put plainly: INS-1E survival protection against cytokine death – cell-based, luminescence, retest, dose response (AID 449756).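 Note: cell death triggered by IL-1 beta plus TNF-alpha plus IFN-gamma mixture; protective hits raise ATP signal compared with cytokine alone wells.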 In kind it is functional. Particulars: Rattus norvegicus.
Assay [13] addresses Dual specificity tyrosine-phosphorylation-regulated kinase 1A (Rattus norvegicus, UniProt Q63470). In kind it is biochemical, Homo sapiens.
Assay [14] in a line: Luminescence Cell-Based Dose Retest to Confirm Inhibitors of Cancer Stem Cells. [Related pubchem assays (depositor defined):AID2717, AID2721]. In kind it is functional. Particulars: Homo sapiens.
The target in the next assay is T1, fMet-Leu-Phe receptor (Homo sapiens, UniProt P21462).
T1 sequence (P21462 whole entry): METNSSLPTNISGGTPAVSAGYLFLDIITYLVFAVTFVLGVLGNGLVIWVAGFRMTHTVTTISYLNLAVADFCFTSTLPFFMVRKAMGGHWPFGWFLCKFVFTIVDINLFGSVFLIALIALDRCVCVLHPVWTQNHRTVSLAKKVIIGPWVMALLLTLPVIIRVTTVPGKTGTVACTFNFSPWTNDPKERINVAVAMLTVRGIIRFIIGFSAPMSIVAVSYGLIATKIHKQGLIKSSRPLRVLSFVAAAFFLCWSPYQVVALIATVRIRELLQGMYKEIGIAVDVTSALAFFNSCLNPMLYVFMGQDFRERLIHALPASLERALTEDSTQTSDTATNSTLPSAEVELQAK
Put plainly: formyl peptide receptor binders – dose response (AID 519). The assay is classed as functional.

The nature of assay [15]: cells. The assay is classed as functional, cell-based.
A short description of assay [16]: cells. The assay is classed as functional, cell-based. The source holds these as a separate data set.
Assay [17] in a line: THP-1 cell cytotoxicity, dose response, cytotoxicity control for non-replicating M. tuberculosis project (AID 489025). The assay is classed as functional.
A short description of assay [18]: HepG2 cell cytotoxicity, dose response, cytotoxicity control for non-replicating M. tuberculosis project (AID 489018). The assay is classed as functional. Particulars: Mycobacterium tuberculosis.
Assay [19] in a line: Vero E6 cell cytotoxicity, dose response, cytotoxicity control for non-replicating M. tuberculosis project, secondary assay (AID 492998). The assay is classed as functional, VeroE6. Particulars: Vero C1008.
The nature of assay [20]: cells. In kind it is functional.
The next assay relates to H9c2. As to the kind of experiment: cells. The assay is classed as functional, cell-based. Particulars: Rattus norvegicus, H9c2, Myocardium.
Assay [21] concerns the target T2, Rac GTPase-activating protein 1 (Homo sapiens, UniProt Q9H0H5).
T2 sequence (Q9H0H5 whole entry): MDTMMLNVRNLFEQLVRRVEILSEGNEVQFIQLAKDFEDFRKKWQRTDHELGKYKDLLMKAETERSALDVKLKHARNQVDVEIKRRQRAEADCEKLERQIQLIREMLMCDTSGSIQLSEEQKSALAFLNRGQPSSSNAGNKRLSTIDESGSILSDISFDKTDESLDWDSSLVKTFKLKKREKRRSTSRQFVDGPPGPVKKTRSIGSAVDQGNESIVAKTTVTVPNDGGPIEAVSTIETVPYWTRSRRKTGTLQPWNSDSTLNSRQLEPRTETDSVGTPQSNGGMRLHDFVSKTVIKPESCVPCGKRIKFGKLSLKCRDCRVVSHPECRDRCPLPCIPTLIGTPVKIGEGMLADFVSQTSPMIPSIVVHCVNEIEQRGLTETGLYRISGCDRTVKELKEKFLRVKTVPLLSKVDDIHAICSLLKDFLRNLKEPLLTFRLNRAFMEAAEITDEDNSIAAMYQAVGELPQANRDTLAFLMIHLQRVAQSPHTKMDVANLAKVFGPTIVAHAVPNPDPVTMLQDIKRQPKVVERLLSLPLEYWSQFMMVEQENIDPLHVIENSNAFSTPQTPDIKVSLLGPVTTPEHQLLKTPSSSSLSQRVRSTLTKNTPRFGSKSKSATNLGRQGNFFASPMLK
Put plainly: blockers of MgcRacGAP-driven Rac1 GTP hydrolysis – biochemical, ADP Hunter fluorescence, primary and confirmatory, confirmation (AID 624330). The assay is classed as functional.

Voltage-dependent T-type calcium channel subunit alpha-1H, sequence (O95180 whole entry): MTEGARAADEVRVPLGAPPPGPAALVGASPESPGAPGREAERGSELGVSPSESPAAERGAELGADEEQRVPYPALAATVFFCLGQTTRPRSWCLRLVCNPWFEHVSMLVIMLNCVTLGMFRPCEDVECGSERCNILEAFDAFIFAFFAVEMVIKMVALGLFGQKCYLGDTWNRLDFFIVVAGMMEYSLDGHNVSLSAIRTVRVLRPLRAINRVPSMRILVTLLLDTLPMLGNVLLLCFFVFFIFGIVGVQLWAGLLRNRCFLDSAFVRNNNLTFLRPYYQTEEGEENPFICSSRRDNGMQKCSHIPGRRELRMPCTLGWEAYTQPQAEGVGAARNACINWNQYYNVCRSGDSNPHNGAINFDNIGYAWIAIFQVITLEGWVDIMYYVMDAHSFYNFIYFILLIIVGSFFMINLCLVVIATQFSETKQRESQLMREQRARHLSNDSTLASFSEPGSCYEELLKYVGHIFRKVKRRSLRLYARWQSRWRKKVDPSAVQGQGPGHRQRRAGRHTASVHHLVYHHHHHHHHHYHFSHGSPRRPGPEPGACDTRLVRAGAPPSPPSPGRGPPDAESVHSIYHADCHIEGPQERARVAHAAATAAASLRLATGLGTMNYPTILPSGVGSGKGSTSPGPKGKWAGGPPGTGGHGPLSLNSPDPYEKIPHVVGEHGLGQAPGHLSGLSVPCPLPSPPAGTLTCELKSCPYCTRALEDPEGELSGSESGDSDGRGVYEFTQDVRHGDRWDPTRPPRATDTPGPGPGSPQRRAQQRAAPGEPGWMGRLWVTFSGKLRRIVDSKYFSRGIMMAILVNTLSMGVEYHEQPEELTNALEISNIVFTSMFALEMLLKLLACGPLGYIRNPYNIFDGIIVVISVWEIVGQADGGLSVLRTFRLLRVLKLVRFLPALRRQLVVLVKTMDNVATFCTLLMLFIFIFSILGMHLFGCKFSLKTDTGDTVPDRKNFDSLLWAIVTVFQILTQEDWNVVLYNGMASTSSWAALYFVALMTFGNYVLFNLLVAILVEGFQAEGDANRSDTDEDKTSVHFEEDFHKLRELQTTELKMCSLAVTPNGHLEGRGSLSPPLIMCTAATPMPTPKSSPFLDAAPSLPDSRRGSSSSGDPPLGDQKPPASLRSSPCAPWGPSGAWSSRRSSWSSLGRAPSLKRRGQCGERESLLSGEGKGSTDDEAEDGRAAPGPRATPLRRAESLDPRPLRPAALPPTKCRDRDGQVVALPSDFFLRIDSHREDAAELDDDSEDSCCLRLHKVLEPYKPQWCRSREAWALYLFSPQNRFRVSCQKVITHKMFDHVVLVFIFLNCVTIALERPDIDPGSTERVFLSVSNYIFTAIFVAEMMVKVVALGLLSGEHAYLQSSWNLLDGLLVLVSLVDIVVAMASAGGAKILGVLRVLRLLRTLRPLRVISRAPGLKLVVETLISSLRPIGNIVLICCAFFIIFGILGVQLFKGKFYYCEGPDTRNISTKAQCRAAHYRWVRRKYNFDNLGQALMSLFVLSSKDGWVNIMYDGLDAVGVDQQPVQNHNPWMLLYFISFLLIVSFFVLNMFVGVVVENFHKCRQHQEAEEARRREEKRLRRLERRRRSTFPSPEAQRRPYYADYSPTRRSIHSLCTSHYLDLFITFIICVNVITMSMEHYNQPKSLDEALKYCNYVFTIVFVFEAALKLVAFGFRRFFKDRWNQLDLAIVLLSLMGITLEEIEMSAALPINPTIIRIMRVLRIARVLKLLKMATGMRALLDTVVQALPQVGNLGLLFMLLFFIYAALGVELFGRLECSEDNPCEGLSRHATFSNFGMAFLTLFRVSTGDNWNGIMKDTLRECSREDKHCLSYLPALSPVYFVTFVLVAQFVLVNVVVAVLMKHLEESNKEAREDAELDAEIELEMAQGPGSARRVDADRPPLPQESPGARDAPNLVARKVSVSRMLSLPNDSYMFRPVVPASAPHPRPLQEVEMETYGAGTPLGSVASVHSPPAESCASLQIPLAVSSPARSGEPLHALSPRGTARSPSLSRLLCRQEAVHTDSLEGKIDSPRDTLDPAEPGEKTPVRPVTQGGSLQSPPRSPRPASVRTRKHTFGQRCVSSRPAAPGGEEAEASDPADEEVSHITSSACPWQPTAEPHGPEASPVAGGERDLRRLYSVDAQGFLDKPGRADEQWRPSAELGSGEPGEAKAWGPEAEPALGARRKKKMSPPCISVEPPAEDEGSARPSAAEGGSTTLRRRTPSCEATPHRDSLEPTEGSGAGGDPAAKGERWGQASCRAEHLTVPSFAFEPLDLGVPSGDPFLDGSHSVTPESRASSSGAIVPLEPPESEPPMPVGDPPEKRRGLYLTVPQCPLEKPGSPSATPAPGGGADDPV
DNA dC->dU-editing enzyme APOBEC-3A, sequence (P31941 whole entry): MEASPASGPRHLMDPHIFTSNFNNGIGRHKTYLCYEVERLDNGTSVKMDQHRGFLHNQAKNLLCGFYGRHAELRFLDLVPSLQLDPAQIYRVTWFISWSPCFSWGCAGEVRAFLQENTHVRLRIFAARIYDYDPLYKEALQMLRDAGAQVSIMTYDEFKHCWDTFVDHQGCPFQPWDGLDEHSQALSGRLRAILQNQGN
DNA dC->dU-editing enzyme APOBEC-3G, sequence (Q9HC16 whole entry): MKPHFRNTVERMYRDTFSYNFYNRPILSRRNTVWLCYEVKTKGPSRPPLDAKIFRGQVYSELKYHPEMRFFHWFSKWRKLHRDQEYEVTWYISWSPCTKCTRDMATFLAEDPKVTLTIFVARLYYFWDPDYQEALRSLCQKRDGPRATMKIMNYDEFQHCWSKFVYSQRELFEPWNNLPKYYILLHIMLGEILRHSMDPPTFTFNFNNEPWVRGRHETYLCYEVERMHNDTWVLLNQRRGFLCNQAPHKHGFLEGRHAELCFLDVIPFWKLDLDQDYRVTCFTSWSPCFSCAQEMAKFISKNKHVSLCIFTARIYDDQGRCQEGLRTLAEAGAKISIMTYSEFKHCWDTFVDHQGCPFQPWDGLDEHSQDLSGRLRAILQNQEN
G-protein coupled receptor 55, sequence (Q9Y2T6 whole entry): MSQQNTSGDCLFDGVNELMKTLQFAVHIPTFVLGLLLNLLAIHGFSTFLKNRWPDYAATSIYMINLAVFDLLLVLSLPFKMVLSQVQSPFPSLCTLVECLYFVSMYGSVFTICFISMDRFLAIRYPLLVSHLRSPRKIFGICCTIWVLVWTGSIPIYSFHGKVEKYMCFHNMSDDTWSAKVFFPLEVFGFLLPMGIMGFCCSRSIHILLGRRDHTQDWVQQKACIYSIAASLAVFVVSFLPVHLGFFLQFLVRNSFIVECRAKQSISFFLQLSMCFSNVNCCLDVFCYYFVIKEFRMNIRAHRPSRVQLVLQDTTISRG
SUMO-activating enzyme, sequence (Q9UBE0 whole entry): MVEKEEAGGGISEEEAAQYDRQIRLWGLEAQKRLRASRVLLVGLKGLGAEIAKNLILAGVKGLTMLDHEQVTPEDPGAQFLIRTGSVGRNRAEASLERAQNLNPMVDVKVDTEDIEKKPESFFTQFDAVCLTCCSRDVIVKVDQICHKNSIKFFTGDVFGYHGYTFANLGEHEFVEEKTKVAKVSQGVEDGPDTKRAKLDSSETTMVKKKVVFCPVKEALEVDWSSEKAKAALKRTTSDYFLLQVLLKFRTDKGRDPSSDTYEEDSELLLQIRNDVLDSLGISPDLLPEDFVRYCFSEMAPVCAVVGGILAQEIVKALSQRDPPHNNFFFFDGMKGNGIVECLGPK
SUMO-activating enzyme, sequence (Q9UBT2 whole entry): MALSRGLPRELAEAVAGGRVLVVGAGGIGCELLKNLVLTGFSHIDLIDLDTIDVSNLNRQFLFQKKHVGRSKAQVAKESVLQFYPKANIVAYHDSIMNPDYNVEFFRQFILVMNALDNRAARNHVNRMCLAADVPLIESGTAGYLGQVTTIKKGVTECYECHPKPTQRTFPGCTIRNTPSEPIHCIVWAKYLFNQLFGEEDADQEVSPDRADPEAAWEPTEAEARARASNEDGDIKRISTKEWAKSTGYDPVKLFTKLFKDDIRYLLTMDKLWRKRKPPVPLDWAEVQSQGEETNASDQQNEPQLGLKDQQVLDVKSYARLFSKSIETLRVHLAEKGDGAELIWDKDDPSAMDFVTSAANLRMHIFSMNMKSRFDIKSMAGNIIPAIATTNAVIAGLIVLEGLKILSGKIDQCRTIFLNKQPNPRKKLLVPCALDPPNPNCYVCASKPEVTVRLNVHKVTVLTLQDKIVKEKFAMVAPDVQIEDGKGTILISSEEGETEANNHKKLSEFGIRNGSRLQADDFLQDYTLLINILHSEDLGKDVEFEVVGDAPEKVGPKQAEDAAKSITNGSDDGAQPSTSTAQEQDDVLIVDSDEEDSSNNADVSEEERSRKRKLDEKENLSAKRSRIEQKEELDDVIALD

As to `Cn1c(C(=O)NCc2cccs2)cc2oc3ccccc3c21`, the CC50 is 3.9 µM (active) in assay [1] and > 25 µM (active) with Vero [5]. The EC50 in assay [2] was > 120 µM (not active); in assay [3] it was 2.92 µM (active); in the assay on H4 it was > 120 µM (not active). For the same molecule, the IC50 in the assay with Vero [4] is 1.32 µM (active); in the assay “cells [6]”, 18.4 µM (active).

`C[N+](C)(C)CCCNC(=O)c1ccc(C=NO)nc1`: the IC50 in assay [7] is 2.7 µM (active); in [8], 4.16 µM (active).

Regarding `CC[n+]1c(/C=C/C=C/N(C(C)=O)c2ccccc2)sc2ccccc21`, the EC50 was 20.8 µM (active) in [9], 19.7 µM (active) in [10] and 2.21 µM (active) in assay [11].

For the molecule `COc1ccc(-c2nnc(SCC(=O)Nc3cc(C)on3)[nH]2)cc1`, the IC50 at SUMO-activating enzyme was > 100 µM (inactive).

As to `Cc1ccccc1-c1cc(C(=O)Nc2sc(C)c(C)c2C(N)=O)c2ccccc2n1`, the IC50 in assay [12] is 2.76 µM (active). In addition, the AC50 in the assay with INS1 was 5.87 µM (active).

Turning to `CC12CCC(C(=O)Nc3nc4ccc(Br)cc4s3)(OC1=O)C2(C)C` (stereo unspecified), the AC50 in [13] is 1.36 µM (active).

`Cc1nn(-c2nc3ccccc3s2)c(C)c1Oc1ccccc1O`: the CC50 in assay [1] is 20.6 µM (active); with Vero [5], > 25 µM (active). In [14], the AC50 is 5.5 µM (active). Also, the half-inhibitory concentration (IC50) in the assay with Vero [4] is 11.7 µM (active); in the assay “cells [6]”, 15.6 µM (active). For the same molecule, the Ki on fMet-Leu-Phe receptor is > 66.7 µM (inactive).

On to `CCN(CCCNC(=O)CCc1nc(-c2ccc(OC)cc2)no1)c1cccc(C)c1`, for which the EC50 in the assay “cells [15]” was > 350 µM (not active); in the assay “cells [16]”, > 350 µM (not active); in assay [11], 4.41 µM (active).

In the case of `CCN(c1ccccc1)S(=O)(=O)c1ccc(Cl)c(NC(=O)CSc2n[nH]c(N)n2)c1`, the CC50 in assay [1] is 44.2 µM (active). The IC50 in “cells [6]” was 7.78 µM (active).

`CC(=O)c1ccc(C(=O)Nc2nnc(-c3ccc(Cl)cc3)o2)cc1`: the values for the CC50 in [17], in [18] and in assay [19] were 7.9 µM (active), 13.1 µM (active) and 8.62 µM (active), respectively. Moreover, the results for the IC50 in “cells [20]” and in the assay with H9c2 were 0.47 µM (active) and > 79 µM (inactive), respectively.

On to `COc1ccc([N+](=O)[O-])cc1CSc1ccccn1`, for which the IC50 in assay [7] was 8.44 µM (active); in assay [8], 7.41 µM (active).

`CCCc1n(CC(O)COC2CCCCC2)c2ccccc2[n+]1CC` (stereo unspecified): the IC50 in assay [7] is 3.26 µM (active); in assay [8] it was 3.93 µM (active).

On to `Cc1csc(NC(=O)CSc2nc3ccccc3s2)n1`, for which the EC50 in [11] was 7.68 µM (active).

With `CCc1ccccc1/N=C1/S/C(=C/c2ccccc2OCC(=O)N2CCOCC2)C(=O)N1C`, the IC50 in assay [12] is 2.71 µM (active).

On to `COc1cc(/C=C2\Oc3cc(O)ccc3C2=O)ccc1O`, for which, in assay [13], the AC50 was 0.641 µM (active). Besides, in assay [21], the IC50 was 26 µM (active).

Take `COc1ccc(/C=C/C(=O)O)cc1` [4-METHOXYCINNAMIC ACID]: the AC50 in [13] was 21 µM (active).
